Results: ChEMBL document CHEMBL1275466, “Diversity of penicillin binding proteins among clinical Streptococcus pneumoniae strains from Portugal” (2008)
Values after ≈ are worked out from the molar mass of the structure shown.

Key:
Assay type in all cases: functional
[1] = tested on: Streptococcus pneumoniae; assay: Antibacterial activity against multidrug resistant Streptococcus pneumoniae serotype 6B ATCC 700670 harboring mutant PBP2B PBP2X and PBP1A
[2] = tested on: Streptococcus pneumoniae; assay: Antibacterial activity against multidrug resistant Streptococcus pneumoniae serotype 23 URA3558 harboring mutant PBP2X and PBP1A
[3] = tested on: Streptococcus pneumoniae; assay: Antibacterial activity against penicillin-cefotaxime- ceftriaxone-resistant Streptococcus pneumoniae serotype 14 URA3043 harboring mutant PBP2B PBP2X and PBP1A
[4] = tested on: Streptococcus pneumoniae; assay: Antibacterial activity against multidrug resistant Streptococcus pneumoniae serotype 14 URA4203 harboring mutant PBP2B PBP2X and PBP1A
[5] = tested on: Streptococcus pneumoniae; assay: Antibacterial activity against penicillin-resistant Streptococcus pneumoniae serotype 14 URA5128 harboring mutant PBP2B PBP2X and PBP1A
[6] = tested on: Streptococcus pneumoniae; assay: Antibacterial activity against multidrug resistant Streptococcus pneumoniae serotype 19A ATCC 700673 harboring mutant PBP2B PBP2X and PBP1A
[7] = tested on: Streptococcus pneumoniae; assay: Antibacterial activity against tetracycline- erythromycin- clindamycin-resistant Streptococcus pneumoniae serotype 6B URA4376 harboring mutant PBP1A
[8] = tested on: Streptococcus pneumoniae; assay: Antibacterial activity against Streptococcus pneumoniae serotype 3 URA3537 harboring mutant PBP1A
[9] = tested on: Streptococcus pneumoniae; assay: Antibacterial activity against penicillin-resistant Streptococcus pneumoniae serotype 14 URA4731 harboring mutant PBP2B PBP2X and PBP1A
[10] = tested on: Streptococcus pneumoniae; assay: Antibacterial activity against penicillin-resistant Streptococcus pneumoniae serotype 23F URA5391 harboring mutant PBP2B PBP2X and PBP1A
[11] = tested on: Streptococcus pneumoniae; assay: Antibacterial activity against penicillin-cefotaxime- ceftriaxone-resistant Streptococcus pneumoniae serotype 14 URA3543 harboring mutant PBP2B PBP2X and PBP1A
[12] = tested on: Streptococcus pneumoniae; assay: Antibacterial activity against penicillin-cefotaxime- ceftriaxone-resistant Streptococcus pneumoniae URA6056 harboring mutant PBP2B PBP2X and PBP1A
[13] = tested on: Streptococcus pneumoniae; assay: Antibacterial activity against erythromycin-resistant Streptococcus pneumoniae serotype 14 URA4933 harboring mutant PBP2X and PBP1A
[14] = tested on: Streptococcus pneumoniae; assay: Antibacterial activity against Streptococcus pneumoniae serotype 22 URA2542 harboring PBP2B harboring mutant PBP2B PBP2X and PBP1A
[15] = tested on: Streptococcus pneumoniae; assay: Antibacterial activity against multidrug resistant Streptococcus pneumoniae serotype 24F URA5450 harboring mutant PBP2B PBP2X and PBP1A
[16] = tested on: Streptococcus pneumoniae; assay: Antibacterial activity against Streptococcus pneumoniae serotype 9V URA4929 harboring mutant PBP1A
[17] = tested on: Streptococcus pneumoniae; assay: Antibacterial activity against multidrug resistant Streptococcus pneumoniae serotype 15A URA5779 harboring mutant PBP2B PBP2X and PBP1A
[18] = tested on: Streptococcus pneumoniae; assay: Antibacterial activity against multidrug resistant Streptococcus pneumoniae serotype 6B URA4566 harboring mutant PBP2B PBP2X and PBP1A
[19] = tested on: Streptococcus pneumoniae; assay: Antibacterial activity against Streptococcus pneumoniae R6
[20] = tested on: Streptococcus pneumoniae; assay: Antibacterial activity against Streptococcus pneumoniae URA2543 harboring mutant PBP1A
[21] = tested on: Streptococcus pneumoniae; assay: Antibacterial activity against penicillin-resistant Streptococcus pneumoniae serotype 19A URA3635 harboring mutant PBP2B PBP2X and PBP1A
[22] = tested on: Streptococcus pneumoniae; assay: Antibacterial activity against multidrug resistant Streptococcus pneumoniae serotype 19F URA3699 harboring mutant PBP2B PBP2X and PBP1A
[23] = tested on: Streptococcus pneumoniae; assay: Antibacterial activity against multidrug resistant Streptococcus pneumoniae serotype 23F ATCC 51916 harboring mutant PBP2B PBP2X and PBP1A
[24] = tested on: Streptococcus pneumoniae; assay: Antibacterial activity against multidrug resistant Streptococcus pneumoniae serotype 19A URA5805 harboring mutant PBP2B PBP2X and PBP1A
[25] = tested on: Streptococcus pneumoniae; assay: Antibacterial activity against Streptococcus pneumoniae serotype 4 ATCC BAA-334 harboring mutant PBP1A
[26] = tested on: Streptococcus pneumoniae; assay: Antibacterial activity against Streptococcus pneumoniae serotype 19F URA4087 harboring mutant PBP2X and PBP1A

`CC1(C)S[C@@H]2[C@H](NC(=O)Cc3ccccc3)C(=O)N2[C@H]1C(=O)O` [PENICILLIN G] showed an MIC [1] of 2 µg/mL (≈ 5.98 µM), an MIC [2] of 0.2 µg/mL (≈ 0.598 µM) and an MIC [3] of 2 µg/mL (≈ 5.98 µM). For the same molecule, the MIC [4] was 1.6 µg/mL (≈ 4.78 µM), the MIC [5] was 0.5 µg/mL (≈ 1.5 µM) and the MIC [6] was 2 µg/mL (≈ 5.98 µM). The MIC [7] was 0.0125 µg/mL (≈ 0.0374 µM), the MIC [8] was 0.0125 µg/mL (≈ 0.0374 µM) and the MIC [9] was 0.1 µg/mL (≈ 0.299 µM). The MIC [10] was 0.1 µg/mL (≈ 0.299 µM), the MIC [11] was 2 µg/mL (≈ 5.98 µM) and the MIC [12] was 3.2 µg/mL (≈ 9.57 µM). For the same molecule, the MIC [13] was 0.0125 µg/mL (≈ 0.0374 µM), the MIC [14] was 0.05 µg/mL (≈ 0.15 µM) and the MIC [15] was 0.5 µg/mL (≈ 1.5 µM). The MIC [16] was 0.0125 µg/mL (≈ 0.0374 µM), the MIC [17] was 0.1 µg/mL (≈ 0.299 µM) and the MIC [18] was 0.1 µg/mL (≈ 0.299 µM). The MIC [19] was 0.0125 µg/mL (≈ 0.0374 µM), the MIC [20] was 0.025 µg/mL (≈ 0.0748 µM) and the MIC [21] was 0.1 µg/mL (≈ 0.299 µM). For the same molecule, the MIC [22] was 0.5 µg/mL (≈ 1.5 µM), the MIC [23] was 0.1 µg/mL (≈ 0.299 µM) and the MIC [24] was 1.6 µg/mL (≈ 4.78 µM). For the same molecule, the MIC [25] was 0.0125 µg/mL (≈ 0.0374 µM) and the MIC [26] was 0.025 µg/mL (≈ 0.0748 µM).
